Source: publication PMC11645656, “MRGPRX4 mediates phospho-drug associated pruritus in a humanized mouse model” (Science translational medicine, 2024)
Values joined by “and” are separate entries in the source; they are usually repeats but may differ in a detail not shown here. Identical values can stand only once.

Experiments:
Type in all cases: cell-based
[1] = biological target: T1, MRGPRX4 WT (S83) (Homo sapiens, UniProt Q96LA9, L83S); assay: Calcium mobilization assay (FLIPR), WT (S83) MRGPRX4 transiently expressed in HEK293T cells; parameters: expressed in transfected cells; host or cells: HEK293T, transient; conditions: for fig. S8 response (normalized), concentration-response: WT, single replicate
Excerpt: (§1) Fig. 4. […] Hydrogen bond is shown as cyan dashed lines. […] Data are from three independent experiments, performed in triplicate. (E) pEC50 plots of various agonists toward S83- and L83-MRGPRX4 through calcium mobilization assay. […] Each data point represents an independent experiment, performed in triplicate. The extra sum-of-square F test was used to examine the difference in EC50 values. One-sided t-test was used for nateglinide. *p< 0.05, **p< 0.01 and ***p< 0.001. ns = no statistical significance. Both (D) and (E) are reported as the mean ± SEM. N.D.= no detectable response ≤ 100 μM.
(§2) HEK293 cells and MRGPRX4 stably expressed HEK293 cells were seeded in 100 μl culture media on 96-well plates at a density of 40,000 cells per well and incubated overnight. The next day, the media were replaced with a dye-loading solution from the FLIPR Calcium 5 assay kit (Molecular Devices), diluted in Hank's Balanced Salt Solution (HBSS) with 20 mM HEPES, pH 7.4. After 1 h of incubation at 37°C, cells were allowed to recover for 10 min in the dark at room temperature prior to performing intracellular calcium mobilization assay in a Flexstation-3 instrument with SoftMax®Pro 7.1 software (Molecular Devices). Serial concentrations of tested drugs were prepared in HBSS/HEPES solution at 3X concentration. […] Compounds were tested in triplicates and the signals were averaged. Responses were determined by subtracting the minimum signal (at the baseline before adding the drug) from the maximum signal (obtained after drug stimulation). Four-parameter logistic (4PL) curve fit was used to plot the dose-response curves. […] Both dose-response curve fitting and EC50s calculation are computed with GraphPad Prism software (version: 6.o or above).
(§3) To generate murine Mrgprs expressing cells, HEK293T cells (ATCC) were seeded on poly-D-lysine coated 96 well plate at 25,000 cells per well one day prior to transfection. HEK293T cells were transiently co-transfected with the mammalian expression plasmids carrying cDNA encoding the murine Mrgpr genes and plasmid inserted with cDNA encoding murine α-subunit of the heterotrimeric G15 protein (Gα15) in triplicates using Lipofectamine LTX reagents (Thermo Scientific). To generate WT, S83L, and alanine mutant MRGPRX4-expressing cells, HEK293T cells were seeded on poly-D-lysine coated 384 well plate at 12,000 cells per well one day prior to transfection. Mammalian expression plasmids pLX304 (vector from Addgene) carrying different MRGPRX4 coding sequences were transiently transfected into HEK293T cells in triplicates with Lipofectamine LTX reagents (Thermo Scientific). Intracellular calcium mobilization assays were performed after one day of transfection. Murine Mrgprs tested include Mrgpra1, Mrgpra2a, Mrgpra2b, Mrgpra3, Mrgpra4, Mrgpra6, Mrgpra9, Mrgpra10, Mrgpra11, Mrgpra12, Mrgpra14, Mrgprb5, Mrgprb6, Mrgprb10, Mrgprb11, and Mrgprc11. WT and mutant MRGPRX4 constructs tested include WT, S83L, R82A, R86A, R95A, W158A, Y250A, and Y254A.

[2] = biological target: MRGPRX4 S83L (L83) (Homo sapiens, UniProt Q96LA9); assay: Calcium mobilization assay (FLIPR), S83L MRGPRX4 transiently expressed in HEK293T cells; parameters: expressed in transfected cells; host or cells: HEK293T, transient; conditions: 2e-5 M, single replicate
Excerpt: as §1, §2, §3

[3] = biological target: T2, MRGPRX4 (S83) (Homo sapiens, UniProt Q96LA9, L83S); assay: EC50 determination, intracellular calcium mobilization in MRGPRX4 stably expressed HEK293 cells (FLIPR Calcium 5, Flexstation-3); conditions: propofol series, individual replicate values
T2 construct: expressed in transfected cells
In short: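 EC50 came from a four-parameter logistic fit to averaged triplicate responses, each response being maximum post-stimulation signal less baseline. Intracellular calcium was monitored with Calcium 5 dye in HBSS with 20 mM HEPES, pH 7.4, after 1 h dye loading at 37 °C, using stably transfected HEK293 cells and parental controls.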

[4] = test system: HTLA cells; assay: PRESTO-Tango β-arrestin recruitment assay, parental HTLA cells without MRGPRX4 (control, fig. S1)
Excerpt: Supplement NIHMS2038790-supplement-table.xlsx, sheet "fig. S1" | column: Concentration (M)

[5] = biological target: T1, MRGPRX4 WT (S83); assay: PRESTO-Tango β-arrestin recruitment assay, HTLA cells stably expressing WT (S83) MRGPRX4; parameters: expressed in transfected cells; conditions: HTLA::MRGPRX4
Protocol: HTLA cells, a cell line derived from HEK293 and engineered to stably express a tTA-dependent luciferase reporter and a β-arrestin2-TEV fusion gene, were generously provided by Richard Axel's laboratory. HTLA cells were cultured in growth medium containing 2 μg/ml puromycin and 100 μg/ml hygromycin B in 5% CO2 at 37 °C. Stably MRGPRX4-expressing HTLA cells were generated by transfecting pcDNA3.1(+)-Zeo containing MRGPRX4-Tango construct (either with WT or S83L mutant sequence) into HTLA cells with Lipofectamine 3000 and selecting the successful transfected clones with Zeocin.
HTLA cells stably expressing either WT or S83L MRGPRX4 were seeded in PDL-coated 96-well white clear bottom cell culture plates with DMEM containing 10% FBS, at a density of 35,000 cells per well and were allowed to attach to the bottom of the wells overnight. The next day, growth medium was replaced with 100 μl of serum-free medium containing the tested drugs at various concentrations, and the cells were then incubated at 37°C for 24 h. On the following day, media with drug solutions was removed and 50 μl per well of Bright-Glo™ Reagent from Bright-Glo™ Luciferase Assay System (Promega) was loaded. The plate was incubated at room temperature in the dark for 5 min, and the relative luminescence units were measured using the Flexstation-3 instrument with SoftMax®Pro 7.1 software (Molecular Devices). Dose response curves and EC50s were analyzed as described above.
Data are from at least two independent experiments, each performed in
triplicate, and are depicted as mean ± SEM.
arrestin2-TEV fusion gene and a tTA -dependent luciferase reporter.

T1 sequence (Q96LA9 whole entry L83S): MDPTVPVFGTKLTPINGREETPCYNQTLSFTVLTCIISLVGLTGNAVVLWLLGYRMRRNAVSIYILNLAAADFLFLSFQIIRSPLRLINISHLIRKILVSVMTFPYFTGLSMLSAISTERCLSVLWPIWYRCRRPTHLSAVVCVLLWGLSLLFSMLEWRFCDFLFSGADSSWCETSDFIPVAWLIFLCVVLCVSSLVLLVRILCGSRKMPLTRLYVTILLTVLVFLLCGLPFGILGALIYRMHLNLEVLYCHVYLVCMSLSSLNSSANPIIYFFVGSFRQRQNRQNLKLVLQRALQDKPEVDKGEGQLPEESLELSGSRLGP
T2 sequence (Q96LA9 whole entry L83S): as above
Sequence of MRGPRX4 S83L (L83) (Q96LA9 whole entry, stated change not applied): as the sequence (Q96LA9 whole entry L83S) above, with S83L counted along it

With `C[C@H](CCC(=O)O)[C@H]1CC[C@H]2[C@@H]3CC[C@@H]4C[C@H](O)CC[C@]4(C)[C@H]3C[C@H](O)[C@]12C` [Deoxycholic Acid] the “fig. S8 response (normalized), concentration-response” value (“fig. S8 response (normalized)” below) ([1]; 1.95e-8 M) was 6.035, the “fig. S8 response (normalized)” value ([1]; 3.91e-8 M) was 8.843 and the “Potency at S83- vs L83-MRGPRX4” value ([1]; calcium mobilization, compared with S83L (A17)) was “equal potency”. The “fig. S8 response (normalized)” value [2] was 87.5629.

For `CC(C)c1cccc(C(C)C)c1O` [Propofol], the “Fig. 1D dose-response, calcium response at Concentration (M)” value (“Fig. 1D dose-response, calcium response” for short) ([3]; 9.76563e-7 M) was 0.414 and 3.255 and 2.599 and 1.616 and 1.795 and 1.237 and 1.276 and 3.496 and 2.341, the “Fig. 1D dose-response, calcium response” value ([3]; 1.95313e-6 M) was 1.458 and 0.513 and 0.300 and 1.914 and 1.276 and 2.203 and 3.251 and -1.964 and 1.519 and the “Fig. 1D dose-response, calcium response” value ([3]; 3.90625e-6 M) was 5.819 and 7.751 and 4.466 and 7.090 and 4.830 and 4.639 and 13.006 and -1.259 and 2.816. For the same compound, the “Fig. 1D dose-response, calcium response” value ([3]; 7.8125e-6 M) was 1.962 and 0.130 and 1.580 and 1.041 and 3.162 and 0.591 and -0.388 and 5.581 and 3.691, the “Fig. 1D dose-response, calcium response” value ([3]; 1.5625e-5 M) was 1.132 and 9.188 and 9.688 and 3.963 and 8.123 and 8.863 and 0.133 and 12.778 and 11.454 and the “Fig. 1D dose-response, calcium response” value ([3]; 3.125e-5 M) was 25.991 and 46.958 and 31.996 and 27.619 and 18.338 and 28.954 and 31.875 and 17.124 and 5.004. For the same compound, the “Fig. 1D dose-response, calcium response” value ([3]; 6.25e-5 M) was 7.246 and 18.605 and 32.559 and 31.367 and 1.645 and 36.351 and 11.712 and 17.508 and 39.720, the “Fig. 1D dose-response, calcium response” value ([3]; 0.00025 M) was 30.626 and 14.912 and 5.366 and 49.034 and 15.438 and 25.512 and 22.768 and 21.559 and 24.302 and the “Fig. 1D dose-response, calcium response” value ([3]; 0.0005 M) was 10.617 and 40.711 and 21.943 and 10.261 and 44.385 and 12.114 and 18.721 and 45.754 and 25.261. The “Fig. 1D dose-response, calcium response” value ([3]; 0.001 M) was 34.500 and 40.615 and 40.058 and 10.462 and 33.199 and 24.127 and 20.241 and 39.351 and 8.604, the “PRESTO-Tango response (fig. S1), single replicate” value (“PRESTO-Tango response (fig. S1)” below) ([4]; concentration 9.77e-7 M) was 0.002641 and 0.003228 and 0.001921 and 0.003818 and 0.005628 and 0.002399 and 0.002922 and 0.00482 and 0.001506 and the “PRESTO-Tango response (fig. S1)” value ([4]; concentration 1.95e-6 M) was 0.01304 and 0.00742 and 0.001861 and 0.009318 and 0.007315 and 0.005392 and 0.006104 and 0.000476 and 0.005086. The “PRESTO-Tango response (fig. S1)” value ([4]; concentration 3.91e-6 M) was 0.0059 and 0.008908 and 0.007295 and 0.003528 and 0.003903 and 0.003563 and 0.006271 and 0.01085 and 0.002976, the “PRESTO-Tango response (fig. S1)” value ([4]; concentration 7.81e-6 M) was 0.01035 and 0.005294 and 0.00767 and 0.001374 and 0.003682 and 0.00304 and 0.005677 and 0.00324 and 0.000748 and the “PRESTO-Tango response (fig. S1)” value ([4]; concentration 1.56e-5 M) was 0.005663 and 0.003492 and 0.001779 and 0.006047 and 0.000809 and 0.001829 and 0.006081 and 0.002266 and 0.003388. The “PRESTO-Tango response (fig. S1)” value ([4]; concentration 3.13e-5 M) was 0.005015 and 0.001994 and 0.006447 and 0.00774 and 0.01014 and 0.004442 and 0.006627 and 0.005281 and 0.005885, the “PRESTO-Tango response (fig. S1)” value ([4]; concentration 6.25e-5 M) was 0.00323 and 0.00222 and 0.005079 and 0.001882 and 0.000357 and 0.003112 and 0.002446 and 0.001662 and 0.004291 and the “PRESTO-Tango response (fig. S1)” value ([4]; concentration 0.00025 M) was 0.00362 and 0.004413 and 0.002642 and 0.006045 and 0.000923 and 0.008313 and 0.004252 and 0.005811 and 0.003669. The “PRESTO-Tango response (fig. S1)” value ([4]; concentration 0.0005 M) was 0.004877 and 0.00565 and 0.005098 and 0.004157 and 0.003595 and 0.001306 and 0.008836 and 0.005548 and 0.00448, the “PRESTO-Tango response (fig. S1)” value ([4]; concentration 0.001 M) was 0.000524 and 0.002159 and 0.001733 and 0.007522 and 0.000243 and 0.003444 and 0.004679 and 0.004321 and 0.006568 and the “PRESTO-Tango response (fig. S1)” value ([5]; concentration 9.77e-7 M) was 0.1179 and 0.1434 and 0.1128 and 0.0576 and 0.1584 and 0.1581 and 0.09558 and 0.2113 and 0.06727. For the same compound, the “PRESTO-Tango response (fig. S1)” value ([5]; concentration 1.95e-6 M) was 0.1108 and 0.0929 and 0.1168 and 0.004899 and 0.1204 and 0.1953 and 0.1172 and 0.1059 and 0.09744, the “PRESTO-Tango response (fig. S1)” value ([5]; concentration 3.91e-6 M) was 0.09107 and 0.1491 and 0.1505 and 0.154 and 0.1534 and 0.08321 and 0.05164 and 0.03127 and 0.3077 and the “PRESTO-Tango response (fig. S1)” value ([5]; concentration 7.81e-6 M) was 0.1035 and 0.1156 and 0.1105 and 0.05878 and 0.1844 and 0.08643 and 0.09982 and 0.0447 and 0.1851. For the same compound, the “PRESTO-Tango response (fig. S1)” value ([5]; concentration 1.56e-5 M) was 0.1135 and 0.116 and 0.1027 and 0.1824 and 0.02561 and 0.1241 and 0.06605 and 0.09721 and 0.1689, the “PRESTO-Tango response (fig. S1)” value ([5]; concentration 3.13e-5 M) was 0.1268 and 0.1068 and 0.1143 and 0.2727 and 0.04775 and 0.02749 and 0.1181 and 0.1469 and 0.08291 and the “PRESTO-Tango response (fig. S1)” value ([5]; concentration 6.25e-5 M) was 0.1552 and 0.07997 and 0.0929 and 0.03397 and 0.1353 and 0.1588 and 0.2302 and 0.01074 and 0.08707. For the same compound, the “PRESTO-Tango response (fig. S1)” value ([5]; concentration 0.00025 M) was 0.109 and 0.07615 and 0.1012 and 0.1462 and 0.1013 and 0.03885 and 0.188 and 0.002674 and 0.09569, the “PRESTO-Tango response (fig. S1)” value ([5]; concentration 0.0005 M) was 0.06978 and 0.08316 and 0.1048 and 0.1033 and 0.11 and 0.04438 and 0.05461 and 0.1469 and 0.05616 and the “PRESTO-Tango response (fig. S1)” value ([5]; concentration 0.001 M) was 0.07852 and 0.088 and 0.0856 and 0.07264 and 0.06166 and 0.1178 and 0.08358 and 0.132 and 0.03659.
